Values quoted from earlier work in US20110104281A1, “METHOD FOR TREATING PAIN USING A SUBSTITUTED 2-AMINOTETRALIN COMPOUND” (UCB PHARMA GMBH, priority 2006, published 2011).

What was measured:
5-HT7 = 5-HT7 (Homo sapiens, UniProt P34969); conditions: cited from earlier work
α2B receptor = α2B receptor (Homo sapiens, UniProt P18089); conditions: cited from earlier work
5-HT1A receptor = 5-HT1A receptor (Homo sapiens, UniProt P08908); conditions: cited from earlier work
fibromyalgia patients = conditions: preliminary clinical studies; cited from earlier work
D1 receptor = D1 receptor (Homo sapiens, UniProt P21728); conditions: cited from earlier work
Chain of D1 receptor (P21728 whole entry): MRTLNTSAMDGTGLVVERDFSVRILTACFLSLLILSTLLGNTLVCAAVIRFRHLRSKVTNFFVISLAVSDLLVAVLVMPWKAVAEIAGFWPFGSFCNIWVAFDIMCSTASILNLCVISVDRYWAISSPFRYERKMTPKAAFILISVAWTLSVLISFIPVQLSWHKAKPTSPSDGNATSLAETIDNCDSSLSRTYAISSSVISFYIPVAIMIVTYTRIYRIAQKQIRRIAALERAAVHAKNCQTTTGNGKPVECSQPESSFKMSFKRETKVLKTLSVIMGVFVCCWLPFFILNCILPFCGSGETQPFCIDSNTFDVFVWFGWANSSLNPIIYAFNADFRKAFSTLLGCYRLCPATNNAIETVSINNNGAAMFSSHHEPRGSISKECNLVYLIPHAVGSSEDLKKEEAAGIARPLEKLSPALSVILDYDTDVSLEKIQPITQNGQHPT

D3 receptor = D3 receptor (Homo sapiens, UniProt P35462); conditions: cited from earlier work
Chain of D3 receptor (P35462 whole entry): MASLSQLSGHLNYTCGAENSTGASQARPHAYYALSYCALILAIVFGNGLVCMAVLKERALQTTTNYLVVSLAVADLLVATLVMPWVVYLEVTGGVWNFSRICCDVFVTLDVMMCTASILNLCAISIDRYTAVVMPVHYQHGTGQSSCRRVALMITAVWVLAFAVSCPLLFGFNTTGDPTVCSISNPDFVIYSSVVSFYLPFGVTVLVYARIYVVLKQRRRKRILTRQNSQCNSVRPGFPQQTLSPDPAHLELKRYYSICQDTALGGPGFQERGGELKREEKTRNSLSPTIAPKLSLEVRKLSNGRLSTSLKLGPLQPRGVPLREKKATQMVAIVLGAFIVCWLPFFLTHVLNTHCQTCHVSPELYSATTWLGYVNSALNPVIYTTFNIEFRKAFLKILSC

α2C = α2C (Homo sapiens, UniProt P18825); conditions: cited from earlier work
Chain of α2C (P18825 whole entry): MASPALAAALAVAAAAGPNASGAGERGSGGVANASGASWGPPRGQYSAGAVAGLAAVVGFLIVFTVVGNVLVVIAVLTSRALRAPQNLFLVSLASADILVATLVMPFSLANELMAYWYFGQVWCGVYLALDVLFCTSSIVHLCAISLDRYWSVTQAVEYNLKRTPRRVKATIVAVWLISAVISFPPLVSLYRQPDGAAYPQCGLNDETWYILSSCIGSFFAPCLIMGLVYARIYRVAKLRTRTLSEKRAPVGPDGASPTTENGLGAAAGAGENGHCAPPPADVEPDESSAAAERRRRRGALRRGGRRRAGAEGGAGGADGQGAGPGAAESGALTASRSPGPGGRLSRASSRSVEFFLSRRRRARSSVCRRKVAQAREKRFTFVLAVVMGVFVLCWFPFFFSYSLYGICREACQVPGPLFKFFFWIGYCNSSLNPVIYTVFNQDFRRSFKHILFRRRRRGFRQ

Chain of 5-HT7 (P34969 whole entry, species assumed): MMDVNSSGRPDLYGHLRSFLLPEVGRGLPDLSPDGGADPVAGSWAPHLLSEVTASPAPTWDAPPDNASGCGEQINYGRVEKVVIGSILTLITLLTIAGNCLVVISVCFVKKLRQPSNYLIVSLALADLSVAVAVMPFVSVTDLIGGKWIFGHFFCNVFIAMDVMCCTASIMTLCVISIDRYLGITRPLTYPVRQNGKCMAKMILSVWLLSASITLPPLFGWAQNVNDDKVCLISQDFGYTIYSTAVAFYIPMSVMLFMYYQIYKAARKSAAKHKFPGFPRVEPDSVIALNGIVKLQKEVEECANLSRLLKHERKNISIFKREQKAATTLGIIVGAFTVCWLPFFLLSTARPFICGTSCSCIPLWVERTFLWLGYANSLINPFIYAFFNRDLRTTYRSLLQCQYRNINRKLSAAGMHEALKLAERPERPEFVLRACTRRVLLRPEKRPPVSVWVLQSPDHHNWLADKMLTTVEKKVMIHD
Chain of α2B receptor (P18089 whole entry): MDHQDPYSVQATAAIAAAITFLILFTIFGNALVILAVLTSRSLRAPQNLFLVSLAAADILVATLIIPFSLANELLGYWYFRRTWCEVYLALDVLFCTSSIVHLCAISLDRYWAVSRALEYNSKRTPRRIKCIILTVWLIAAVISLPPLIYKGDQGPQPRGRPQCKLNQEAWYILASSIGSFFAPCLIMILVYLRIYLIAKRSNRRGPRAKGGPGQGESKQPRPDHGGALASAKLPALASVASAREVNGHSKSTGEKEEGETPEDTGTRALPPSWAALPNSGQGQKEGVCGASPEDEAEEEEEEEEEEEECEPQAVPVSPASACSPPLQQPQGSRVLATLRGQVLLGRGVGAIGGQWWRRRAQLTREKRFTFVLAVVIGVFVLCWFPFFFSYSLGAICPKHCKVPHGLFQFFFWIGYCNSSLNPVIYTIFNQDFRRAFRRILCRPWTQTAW
Chain of 5-HT1A receptor (P08908 whole entry): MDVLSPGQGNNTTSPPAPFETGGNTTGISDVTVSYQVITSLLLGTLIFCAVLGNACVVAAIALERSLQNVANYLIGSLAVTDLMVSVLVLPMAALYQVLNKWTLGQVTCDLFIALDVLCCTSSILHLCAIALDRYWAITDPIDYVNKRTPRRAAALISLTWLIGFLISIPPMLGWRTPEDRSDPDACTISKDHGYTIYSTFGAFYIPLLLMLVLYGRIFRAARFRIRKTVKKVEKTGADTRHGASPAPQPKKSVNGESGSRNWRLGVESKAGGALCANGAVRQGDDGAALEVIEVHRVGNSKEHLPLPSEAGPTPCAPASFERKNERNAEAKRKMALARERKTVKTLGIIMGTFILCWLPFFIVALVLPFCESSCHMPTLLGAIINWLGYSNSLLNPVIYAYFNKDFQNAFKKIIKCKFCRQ

SMILES | Affinity for 5-HT7 (5-HT7) | Affinity / action at α2B receptor (α2B receptor) | Affinity / action at 5-HT1A receptor (5-HT1A receptor) | Pain in fibromyalgia patients (fibromyalgia patients) | Affinity for D1 receptor (D1 receptor) | Affinity for D3 receptor (D3 receptor) | Affinity for α2C (α2C)
CCCN[C@H]1CCc2nc(N)sc2C1 [Pramipexole] | only weak or no affinity | only weak or no affinity | only weak or no affinity | shown to reduce pain | only weak or no affinity | strongest affinity for D3 | only weak or no affinity
CCCN(CCC)CCc1cccc2c1CC(=O)N2 [ropinirole] | only weak or no affinity | only weak or no affinity | only weak or no affinity | shown to reduce pain | only weak or no affinity | strongest affinity for D3 | only weak or no affinity
